Laboratory results as given in ChEMBL document CHEMBL6103618, “Discovery of Novel Oxazolo[4,3-f]purine Derivatives as Antitumor Agents through PPIA Interaction” (J Med Chem, 2025).
Active and inactive are the calls of the source. The calls are words filed in the database; no cut-off is given here.

Legend:
HCT-116 [1] = experiment: Induction of apoptosis in human HCT-116 cells assessed as increase in Bax level at 1.2 uM in presence of NAC by Western blot analysis; type: functional, cell-based
HCT-116 [2] = experiment: Induction of intracellular ROS generation in human HCT-116 cells incubated for 48 hrs by DHE staining based analysis; type: functional, cell-based; conditions: dose 0.3-1.2 µM
HCT-116 [3] = experiment: Antiproliferative activity against human HCT-116 cells assessed as inhibition of cell viability incubated for 48 hrs by CCK8 assay; type: functional, cell-based; conditions: HCT-116, 48 h
HCT-116 [4] = experiment: Inhibition of colony formation in human HCT-116 cells incubated for 48 hrs followed by fresh media replacement without compound on every 72 hrs for 14 days by crystal violet staining based analysis; type: functional, cell-based; conditions: dose 0.3-1.2 µM
HCT-116 [5] = experiment: Anti-migration activity in human HCT-116 cells incubated for 24 hrs by wound healing assay; type: functional, cell-based; conditions: dose 0.3-1.2 µM
HCT-116 [6] = experiment: Induction of cell cycle arrest in human HCT-116 cells assessed as accumulation at G2 phase at 0.6 uM incubated for 48 hrs by PI staining based flow cytometry (reference value: 6.08 %); type: functional
HCT-116 [7] = experiment: Induction of cell cycle arrest in human HCT-116 cells assessed as accumulation at G1 phase at 1.2 uM incubated for 48 hrs by PI staining based flow cytometry (reference value: 59.37 %); type: functional
HCT-116 [8] = experiment: Induction of cell cycle arrest in human HCT-116 cells assessed as accumulation at S phase at 1.2 uM incubated for 48 hrs by PI staining based flow cytometry (reference value: 34.55 %); type: functional
HCT-116 [9] = experiment: Induction of apoptosis in human HCT-116 cells assessed as viable cells at 0.6 uM incubated for 48 hrs by Annexin V-FITC/PI staining based flow cytometry (reference value: 96.2 %); type: functional; conditions: read-out: Activity
HCT-116 [10] = experiment: Induction of apoptosis in human HCT-116 cells assessed as late apoptotic cells at 0.6 uM incubated for 48 hrs by Annexin V-FITC/PI staining based flow cytometry (reference value: 1.55 %); type: functional
HCT-116 [11] = experiment: Induction of apoptosis in human HCT-116 cells assessed as necrotic cells at 0.6 uM incubated for 48 hrs by Annexin V-FITC/PI staining based flow cytometry (reference value: 1.15 %); type: functional
HCT-116 [12] = experiment: Induction of apoptosis in human HCT-116 cells assessed as viable cells at 1.2 uM incubated for 48 hrs by Annexin V-FITC/PI staining based flow cytometry (reference value: 96.2 %); type: functional; conditions: read-out: Activity
HCT-116 [13] = experiment: Induction of apoptosis in human HCT-116 cells assessed as early apoptotic cells at 1.2 uM incubated for 48 hrs by Annexin V-FITC/PI staining based flow cytometry (reference value: 1.12 %); type: functional
HCT-116 [14] = experiment: Induction of cell cycle arrest in human HCT-116 cells assessed as decrease in cyclin A2 level incubated for 48 hrs by Western blot analysis; type: functional, cell-based; conditions: dose 0.3-1.2 µM
HCT-116 [15] = experiment: Induction of apoptosis in human HCT-116 cells assessed as decrease in Bcl-2 level at 0.3 to 1.2 uM incubated for 48 hrs by Western blot analysis; type: functional, cell-based; conditions: dose 0.3-1.2 µM
HCT-116 [16] = experiment: Inhibition of cell viability in human HCT-116 cells at 0.3 to 1.2 uM incubated for 48 hrs; type: functional, cell-based; conditions: dose 0.3-1.2 µM
HCT-116 [17] = experiment: Induction of DNA damage in human HCT-116 cells assessed as increase in p53 level at 0.3 to 1.2 uM incubated for 48 hrs by Western blot analysis; type: functional, cell-based; conditions: dose 0.3-1.2 µM
HCT-116 [18] = experiment: Inhibition of colony formation in human HCT-116 cells at 1.2 uM in presence of NAC by crystal violet staining based analysis; type: functional, cell-based
HCT-116 [19] = experiment: Induction of mitochondrial dysfunction in human HCT-116 cells assessed as decrease in ATP6 level at 0.3 to 1.2 uM by Western blot analysis; type: functional, cell-based; conditions: dose 0.3-1.2 µM
HCT-116 [20] = experiment: Effect on SRSF7 expression in human HCT-116 cells upto 6 uM incubated for 30 mins followed by pronase addition measured after 30 mins by DARTS assay; type: functional, cell-based
HCT-116 [21] = experiment: Effect on HSPA1A expression in human HCT-116 cells upto 6 uM incubated for 30 mins followed by pronase addition measured after 30 mins by DARTS assay; type: functional, cell-based
HCT-116 [22] = experiment: Induction of apoptosis in human HCT-116 cells assessed as decrease in p-JNK level by Western blot analysis; type: functional, cell-based; conditions: dose 0.3-1.2 µM
HCT-116 [23] = experiment: Cytotoxicity against human HCT-116 cells harboring siPPIA-3 assessed as inhibition of cell viability incubated for 48 hrs by CCK8 assay; type: functional, cell-based; conditions: HCT-116, 48 h
HCT-116 [24] = experiment: Inhibition of colony formation in human HCT-116 cells harboring siNC at 1.2 uM incubated for 48 hrs followed by fresh media replacement without compound on every 72 hrs for 14 days by crystal violet staining based analysis; type: functional, cell-based
HCT-116 [25] = experiment: Induction of intracellular ROS generation in human HCT-116 cells harboring siPPIA-3 at 1.2 uM by flow cytometry (reference value: 15.4 %); type: functional
HCT-116 [26] = experiment: Induction of apoptosis in human HCT-116 cells harboring siNC assessed as viable cells at 1.2 uM by Annexin V-FITC/PI staining based flow cytometry (reference value: 96.9 %); type: functional; conditions: read-out: Activity
HCT-116 [27] = experiment: Induction of apoptosis in human HCT-116 cells harboring siNC assessed as late apoptotic cells at 1.2 uM by Annexin V-FITC/PI staining based flow cytometry (reference value: 1.35 %); type: functional
HCT-116 [28] = experiment: Induction of apoptosis in human HCT-116 cells harboring siPPIA-3 assessed as viable cells at 1.2 uM by Annexin V-FITC/PI staining based flow cytometry (reference value: 87.9 %); type: functional; conditions: read-out: Activity
[29] = Acute toxicity in BALB/c mouse assessed as death rate at 250 mg/kg, ip measured for 14 days; type: organism-based; conditions: both, in vivo, time 14 day, read-out: Activity
[30] = Acute toxicity in BALB/c mouse assessed as death rate at 500 mg/kg, ip measured for 14 days; type: organism-based; conditions: both, in vivo, time 14 day, read-out: Activity
[31] = Acute toxicity in BALB/c mouse assessed as death rate at 700 mg/kg, ip measured for 14 days; type: organism-based; conditions: both, in vivo, time 14 day, read-out: Activity
[32] = Toxicity in BALB/c mouse implanted with mouse CT26 cells assessed as injury in lung at 15 to 45 mg/kg, ip qd treated for 14 days by H and E staining based analysis; type: organism-based; conditions: in vivo, 336 h, dose 15-45 mg/kg, time 14 day
[33] = Toxicity in BALB/c mouse implanted with mouse CT26 cells assessed as injury in kidney at 15 to 45 mg/kg, ip qd treated for 14 days by H and E staining based analysis; type: organism-based; conditions: in vivo, 336 h, dose 15-45 mg/kg, time 14 day
[34] = Toxicity in BALB/c mouse implanted with mouse CT26 cells assessed as abnormality in spleen at 15 to 45 mg/kg, ip qd treated for 14 days by H and E staining based analysis; type: organism-based; conditions: in vivo, 336 h, dose 15-45 mg/kg, time 14 day
[35] = Toxicity in BALB/c mouse implanted with mouse CT26 cells assessed as abnormality in lung at 15 to 45 mg/kg, ip qd treated for 14 days by H and E staining based analysis; type: organism-based; conditions: in vivo, 336 h, dose 15-45 mg/kg, time 14 day
[36] = Toxicity in BALB/c mouse implanted with mouse CT26 cells assessed as abnormality in kidney at 15 to 45 mg/kg, ip qd treated for 14 days by H and E staining based analysis; type: organism-based; conditions: in vivo, 336 h, dose 15-45 mg/kg, time 14 day

## C=C(C(=O)OC)N1c2nc(Cl)nc(Cl)c2N2C(c3ccccc3F)OC(C(=O)OCC)(C(=O)OCC)C12 (racemic)
HCT-116 [1]
  Activity: inactive
HCT-116 [2]
  Activity: Dose-dependent-effect
HCT-116 [3]
  IC50: 510 nM
HCT-116 [4]
  inhibition: Dose-dependent-effect
HCT-116 [5]
  Activity: Dose-dependent-effect
HCT-116 [6]
  Activity: 4.71%
HCT-116 [7]
  Activity: 69.07%
HCT-116 [8]
  Activity: 28.16%
HCT-116 [9]
  viability at 0.6 µM: 77.5%
HCT-116 [10]
  Activity: 5.53%
HCT-116 [11]
  Activity: 2.12%
HCT-116 [12]
  viability at 1.2 µM: 68%
HCT-116 [13]
  Activity: 21.3%
HCT-116 [14]
  Activity: Dose-dependent-effect
HCT-116 [15]
  Activity: Active
HCT-116 [16]
  inhibition: Active
HCT-116 [17]
  Activity: Active
HCT-116 [18]
  inhibition: inactive
HCT-116 [19]
  Activity: Active
HCT-116 [20]
  Activity: No effect
HCT-116 [21]
  Activity: No effect
HCT-116 [22]
  Activity: Dose-dependent-effect
HCT-116 [23]
  IC50: 1940 nM
HCT-116 [24]
  inhibition: Active
HCT-116 [25]
  Activity: 16.8%
HCT-116 [26]
  viability at 1.2 µM: 77.8%
HCT-116 [27]
  Activity: 4.87%
HCT-116 [28]
  viability at 1.2 µM: 87%
[29]
  mortality at 336 h: 10%
[30]
  mortality at 336 h: 60%
[31]
  mortality at 336 h: 100%
[32]
  Activity: Non-toxic
[33]
  Activity: Non-toxic
[34]
  Activity: Non-toxic
[35]
  Activity: Non-toxic
[36]
  Activity: Non-toxic
